According to patent US11298363B2, “Triazolobenzazepines as vasopressin V1a receptor antagonists” (RICHTER GEDEON NYRT., priority 2017, dated 2022):
Structures can show the parent of a compound that is named as a salt.

Legend:
[1] = target: T1, human vasopressin V1a receptor (Homo sapiens, UniProt P37288); assay: Human vasopressin V1a receptor binding assay; conditions: 1321N1 cell membranes, [3H]vasopressin; read-out: Ki (nM) on hV1a cell line
Procedure: Human Vasopressin V1a Receptor Binding Assay
Cells were suspended in preparative buffer (50 mM Tris, 1 mM EDTA, 0.1 mM PMSF) and homogenized with glass homogenizing potter. To separate the raw membrane fraction two consecutive centrifugation procedures (40,000 g for 20 minutes at 4° C.) were executed, then the membrane was taken into the preparatory buffer during a final washing step, it was divided into aliquots which were stored at −80° C. until the time of measurement.
To determine the final affinity value, the results of at least two independent experiments were taken into account.
Non-specific binding values were determined in the presence of unlabeled 1.2×10^−6 M (Arg^8)-vasopressin. Samples were incubated in a total volume of 0.33 ml for 60 minutes at 27° C. Membrane-bound and free ligands were separated by filtration through a 0.5% polyethyleneimine-impregnated UniFilter® GF/B™. After drying the filter plates, 40 μl Microscint-20 (Packard) scintillation cocktail was added to the samples. Finally, radioactivity was measured using MicroBeta^2 Microplate Counter (Perkin Elmer).
During fitting, the asymptotes are not fixed. The K values (inhibition constant) are given with Cheng-Prusoff equation Ki=IC50/[1+(L/KD)] wherein [L] is the radioligand concentration used in the experiment and [KD] is the affinity of the radioactively labelled ligand for the given receptor. The KD is determined beforehand using the Scatchard curve.

[2] = target: T1, human vasopressin V1a receptor; assay: Functional assay on human vasopressin V1a receptor expressing cell line (intracellular Ca2+ fluorescence); format: cell-based; conditions: for IC50: 1321N1 cells, (Arg8)-vasopressin at EC80, read-out: IC50 (nM) on hV1a cell line; for inhibition at 1 µM: read-out: % at 1 μM, printed in the column IC50 (nM) on hV1a cell line
Procedure: Functional Assay to Test Compounds on Human Vasopressin V1a Receptor Expressing Cell Line
The ordinary secondary messenger pathway of the measured GPCR receptor was used, the endogenous Gq-associated system.
Using 30,000 cells/plate, compounds were measured on 96-well plates. The buffer composition of the measurements was the following (expressed in mM): 140 NaCl, 5 KCl, 2 CaCl2), 2 MgCl2, 10 glucose, 10 HEPES (4-(2-hydroxyethyl)-1-piperazine-ethanesulfonic acid), 2 probenecid, pH=7.4. FLIPR Calcium 5 kit (Molecular Devices) was used as fluorescent dye, the medium was not removed prior to filling with the dye and the cells were not washed out either before or after. The incubation was performed at room temperature, the final concentration of DMSO was 1%. The materials to be measured were administered in 15 to 20 minutes pretreatment, at least two parallels of each compound in each concentration was measured.
Fluorescence signal was used to determine the intracellular Ca^2+ level, the reader was FlexStation II96. […] The fluorescence signal was logged in every 1.4 seconds for 1 minute. The reference compounds used were the following: (Arg^8)-vasopressin as agonist at concentration of EC80, determined for each plate, and relcovaptan as antagonist at 1 μM. The % of inhibition at each concentration and the IC50 value of the compounds were determined where a concentration line was also measured.
The total AVP concentration-response curve was recorded on each plate. The effect of compounds measured was expressed by percentage of relative inhibition compared to control response. […] The average IC50 values were calculated from at least three independent measurements in all cases.

T1 sequence (P37288 whole entry): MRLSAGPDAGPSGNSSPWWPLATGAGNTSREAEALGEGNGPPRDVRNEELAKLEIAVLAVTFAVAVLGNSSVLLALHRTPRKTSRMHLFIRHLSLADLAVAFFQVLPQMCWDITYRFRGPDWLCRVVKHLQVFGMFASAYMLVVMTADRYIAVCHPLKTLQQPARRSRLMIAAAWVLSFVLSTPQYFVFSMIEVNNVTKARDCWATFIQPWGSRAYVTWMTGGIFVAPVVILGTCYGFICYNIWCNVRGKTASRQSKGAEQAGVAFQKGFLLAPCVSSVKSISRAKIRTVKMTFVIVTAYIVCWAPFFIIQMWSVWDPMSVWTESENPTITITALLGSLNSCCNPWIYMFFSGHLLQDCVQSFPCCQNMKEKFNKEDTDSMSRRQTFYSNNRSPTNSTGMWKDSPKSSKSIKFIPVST

SMILES | Ki [1] | IC50 [2] | inhibition at 1 µM [2]
OC1Cc2cc(Cl)ccc2-n2c(nnc2[C@H]2CC[C@H](C(F)(F)F)CC2)C1 (stereo partly drawn) [Example 72, 8-chloro-1-[trans-4-(trifluoromethyl)cyclohexyl]-5,6-dihydro-4H-[1,2,4]triazolo[4,3-a][1]benzazepine-5-ol] | 7.5 nM | 21 nM | –
CN1C[C@]2(CC[C@H](c3nnc4n3-c3ccc(Cl)cc3CC3(C4)OCCO3)CC2)OC1=O [Example 73, (cis)-8-(8′-chloro-4′H,6′H-spiro[1,3-dioxolane-2,5′-[1,2,4]triazolo[4,3-a][1]benzazepine]-1′-il)-3-methyl-1-oxa-3-azaspiro[4.5]decan-2-one] | 1.6 nM | 3.3 nM | –
CN1C[C@]2(CC[C@@H](c3nnc4n3-c3ccc(Cl)cc3CC3(C4)OCCO3)CC2)OC1=O [Example 75, (trans)-8-(8′-chloro-4′H, 6′H-spiro[1,3-dioxolane-2,5′-[1,2,4]triazolo[4,3-a][1]benzazepin]-1′-yl)-3-methyl-1-oxa-3-azaspiro[4.5]decan-2-one] | 3.7 nM | 10.4 nM | –
CN([C@H]1Cc2cc(Cl)ccc2-n2c(nnc2[C@H]2CC[C@H](Oc3ccccn3)CC2)C1)S(C)(=O)=O [Example 76, N-{(5S)-8-chloro-1-[trans-4-(pyridin-2-yloxy)cyclohexyl]-5,6-dihydro-4H-[1,2,4]triazolo[4,3-a][1]benzazepin-5-yl}-N-methylmethanesulfonamide] | 1.1 nM | 2.2 nM | –
CCN[C@H]1Cc2cc(Cl)ccc2-n2c(nnc2[C@H]2CC[C@H](Oc3ccccn3)CC2)C1 [Example 77, (5S)-8-chloro-N-ethyl-1-[trans-4-(pyridin-2-yloxy)cyclohexyl]-5,6-dihydro-4H-[1,2,4]triazolo[4,3-a][1]benzazepine-5-amine] | 1.9 nM | 18 nM | –
CN[C@H]1Cc2cc(Cl)ccc2-n2c(nnc2[C@H]2CC[C@H](Oc3ccccn3)CC2)C1 [Example 78, (5S)-8-chloro-N-methyl-1-[trans-4-(pyridin-2-yloxy)cyclohexyl]-5,6-dihydro-4H-[1,2,4]triazolo[4,3-a][1]benzazepine-5-amine] | 1.7 nM | 12 nM | –
Clc1ccc2c(c1)CC1(Cc3nnc(C4CN(c5ncccn5)C4)n3-2)OCCO1 [Example 79] | 71 nM | 1860 nM | –
O=C(N[C@H]1Cc2cc(Cl)ccc2-n2c(nnc2[C@H]2CC[C@H](Oc3ccccn3)CC2)C1)c1ccc(F)cc1 [Example 80] | 58 nM | 520 nM | –
FC(F)(F)[C@H]1CC[C@H](c2nnc3n2-c2ccc(Br)cc2CC2(C3)OCCO2)CC1 [Example 81, 8′-bromo-1′-[trans-4-(trifluoromethyl)cyclohexyl]-4′H,6′H-spiro[1,3-dioxolane-2,5′-[1,2,4]triazolo[4,3-a][1]benzazepine]] | 0.2 nM | 1.4 nM | –
CC(C)NC1Cc2cc(C#N)ccc2-n2c(nnc2[C@H]2CC[C@H](Oc3ccccn3)CC2)C1 (stereo partly drawn) [Example 82, 5-(propan-2-ylamino)-1-[trans-4-(pyridin-2-yloxy)cyclohexyl]-5,6-dihydro-4H-[1,2,4]triazolo[4,3-a][1]benzazepin-8-carbonitrile trifluoroacetate] | 29 nM | 445 nM | –
Fc1ccc(CN[C@H]2Cc3cc(Cl)ccc3-n3c(nnc3[C@H]3CC[C@H](Oc4ccccn4)CC3)C2)cc1 [Example 83, (S-8-chloro-N-4-fluorobenzyl)-1-[trans-4-pyridin-2-loxcyclohexyl]-5,6-dihydro-4H-[1,2,4]triazolo[4,3-a][1]benzazepine-5-amine] | 4.4 nM | 44 nM | –
N#Cc1ccc2c(c1)CC1(Cc3nnc([C@H]4CC[C@H](C(F)(F)F)CC4)n3-2)OCCO1 [Example 84, 1′-[trans-4-(trifluoromethyl)cyclohexyl]-4′H,6′H-spiro[1,3-dioxolane-2,5′-[1,2,4]triazolo[4,3-a][1]benzazepine]-8′-carbonitrile] | 11.4 nM | 72 nM | –
O=C([C@H]1CC[C@H](c2nnc3n2-c2ccc(Br)cc2CC2(C3)OCCO2)CC1)N1CCCCC1 [Example 85, [Trans-4-(8′-bromo-4′H,6′H-spiro[1,3-dioxolane-2,5′-[1,2,4]triazolo[4,3-a][1]benzazepin]-1′-yl)cyclohexyl](piperidin-1-yl)methanone] | 0.4 nM | 1.8 nM | –
COC(=O)[C@H]1CC[C@H](c2nnc3n2-c2ccc(Br)cc2CC(=O)C3)CC1 [Example 86, methyl trans-4-(8-bromo-5-oxo-5,6-dihydro-4H-[1,2,4]triazolo[4,3-a][1]benzazepin-1-yl)cyclohexane carboxylate] | 2.2 nM | 12 nM | –

More lines, now with the values ahead:

Ki [1] | IC50 [2] | inhibition at 1 µM [2] | SMILES
2.5 nM | 57 nM | – | O=C1Cc2cc(Br)ccc2-n2c(nnc2[C@H]2CC[C@H](C(=O)N3CCCCC3)CC2)C1 [Example 87, 8-bromo-1-[trans-4-(piperidin-1-ylcarbonyl)cyclohexyl]-4H-[1,2,4]triazolo[4,3-a][1]benzazepin-5(6H)-one]
10.2 nM | 152 nM | – | N#Cc1ccc2c(c1)CC1(Cc3nnc([C@H]4CC[C@H](C(=O)N5CCCCC5)CC4)n3-2)OCCO1 [Example 90, 1′-[trans-4-(piperidin-1-ylcarbonyl)cyclohexyl]-4′H,6′H-spiro[1,3-dioxolane-2,5′-[1,2,4]triazolo[4,3-a][1]benzazepin]-8′-carbonitrile]
9.1 nM | 45 nM | – | O=C1Cc2cc(Br)ccc2-n2c(nnc2[C@H]2CC[C@H](C(F)(F)F)CC2)C1 [Example 91, 8-bromo-1-[trans-4-(trifluoromethyl)cyclohexyl]-4H-[1,2,4]triazolo[4,3-a][1]benzazepin-5(6H)-one]
1.9 nM | 16 nM | – | O=C([C@H]1CC[C@H](c2nnc3n2-c2ccc(Br)cc2CC(O)C3)CC1)N1CCCCC1 (stereo partly drawn) [Example 92, [Trans-4-(8-bromo-5-hydroxy-5,6-dihydro-4H-[1,2,4]triazolo[4,3-a][1]benzazepin-1-yl)cyclohexyl](piperidin-1-yl)methanone]
3.2 nM | 16 nM | – | OC1Cc2cc(Br)ccc2-n2c(nnc2[C@H]2CC[C@H](C(F)(F)F)CC2)C1 (stereo partly drawn) [Example 93]
2 nM | 23 nM | – | Clc1ccc2c(c1)CC1(Cc3nnc(N4CCC(N5CCCCC5)CC4)n3-2)OCCO1 [Example 94, 1′-(1,4′-bipiperidin-1′-yl)-8′-chloro-4′H,6′H-spiro[1,3-dioxolane-2,5′-[1,2,4]triazolo[4,3-a][1]benzazepine]]
547 nM | – | 22% | CC(C)(C)OC(=O)NC1Cc2cc(Cl)ccc2-n2c(nnc2N2CCC(N3CCCCC3)CC2)C1 (stereo not drawn) [Example 95, Tert-butyl [1-(1,4′-bipiperidin-1′-yl)-8-chloro-5,6-dihydro-4H-[1,2,4]triazolo[4,3-a][1]benzazepin-5-yl]carbaminate]
122 nM | – | 34% | CN(Cc1ccc(F)cc1)[C@H]1Cc2cc(Cl)ccc2-n2c(nnc2[C@H]2CC[C@H](Oc3ccccn3)CC2)C1 [Example 97, (5S)-8-chloro-N-(4-fluorobenzyl)-N-methyl-1-[trans-4-(pyridin-2-yloxy)cyclohexyl]-5,6-dihydro-4H-[1,2,4]triazolo[4,3-a][1]benzazepin-5-amine]
2.1 nM | 39 nM | – | C=CC(=O)N[C@H]1Cc2cc(Cl)ccc2-n2c(nnc2[C@H]2CC[C@H](Oc3ccccn3)CC2)C1 [Example 98, N-{(5S)-8-chloro-1-[trans-4-(pyridin-2-yloxy)cyclohexyl]-5,6-dihydro-4H-[1,2,4]triazolo[4,3-a][1]benzazepin-5-yl}prop-2-enamide]
5.9 nM | 23 nM | – | O=C1Cc2ccccc2-n2c(nnc2[C@H]2CC[C@H](Oc3ccccn3)CC2)C1 [Example 102, 1-[trans-4-(pyridin-2-yloxy)cyclohexyl]-4H-[1,2,4]triazolo[4,3-a][1]benzazepin-5(6H)-one]
